The record followed here is patent US8063071B2 (GlaxoSmithKline, LLC, priority 2007, dated 2011).

Where a name gives a salt, the structure may show the parent alone.

The test system of assay [1] is human monocyte stimulated cytokine production (TNF-α). Kind of assay: Monocyte assay (LPS-stimulated TNF-α production). In kind it is cell-based. As to conditions: 24 h, 200 ng/mL LPS, TNF-α by ELISA. The method in brief: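 Human CD14+ monocytes were purified from blood and plated at 1×10^6 cells/mL in RPMI 1640 with 10% FBS. Compound was added 30 min before stimulation with 200 ng/mL LPS (0.1% DMSO final), followed by 24 hrs at 37 C. Supernatant TNF-α was measured by ELISA, and viability by trypan blue exclusion.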
Background: An ELISA detects its analyte on a solid surface through an enzyme-linked reagent.

Assay [2] concerns the target T1, Recombinant human IKKβ (residues 1-737) (Homo sapiens, UniProt O14920).
T1 construct: Recombinant human IKKβ (residues 1-737); GST (C); made in house
T1 sequence (O14920 1-737): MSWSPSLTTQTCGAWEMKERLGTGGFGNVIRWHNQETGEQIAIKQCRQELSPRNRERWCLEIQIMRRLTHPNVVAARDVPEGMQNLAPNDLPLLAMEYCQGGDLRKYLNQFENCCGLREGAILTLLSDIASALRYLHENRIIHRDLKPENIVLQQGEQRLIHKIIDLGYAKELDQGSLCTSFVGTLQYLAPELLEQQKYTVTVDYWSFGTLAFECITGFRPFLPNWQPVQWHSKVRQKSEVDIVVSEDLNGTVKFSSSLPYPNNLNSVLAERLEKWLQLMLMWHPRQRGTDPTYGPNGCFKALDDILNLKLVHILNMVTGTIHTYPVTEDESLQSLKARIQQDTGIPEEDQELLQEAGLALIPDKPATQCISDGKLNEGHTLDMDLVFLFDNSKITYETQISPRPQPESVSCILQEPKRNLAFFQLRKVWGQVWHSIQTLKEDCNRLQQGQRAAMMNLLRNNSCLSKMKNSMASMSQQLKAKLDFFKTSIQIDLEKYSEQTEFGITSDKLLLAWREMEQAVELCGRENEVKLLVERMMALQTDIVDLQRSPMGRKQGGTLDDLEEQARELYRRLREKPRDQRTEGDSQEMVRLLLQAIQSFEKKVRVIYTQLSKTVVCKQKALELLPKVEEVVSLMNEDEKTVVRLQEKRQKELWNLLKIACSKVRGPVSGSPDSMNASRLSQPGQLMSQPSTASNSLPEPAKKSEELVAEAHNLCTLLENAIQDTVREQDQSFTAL
Kind of assay: IKK2 assay (TR-FRET). The assay is classed as biochemical. Conditions: ATP 1 μM final, read-out: pIC50 against IKK2 (converted). The method in brief: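 Baculovirus-expressed C-terminal GST-tagged IKKβ (0.5-5 nM final) in HEPES pH 7.4, MgCl2, CHAPS, DTT, BSA with 1.7% DMSO; 25 nM GST-IB substrate and 1 μM ATP, 15 min at room temperature. EDTA stop; phospho-Ser32/36 detected by Eu-antibody/APC-anti-GST TR-FRET, 665/620 nm ratio.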

`CCS(=O)(=O)N1CCC(c2c[nH]c3c(C(N)=O)cc(-c4cccc(CNS(=O)(=O)c5ccc(Cl)cc5)c4)cc23)CC1` [Example 372, 5-[3-({[(4-chlorophenyl)sulfonyl]amino}methyl)phenyl]-3-[1-(ethylsulfonyl)-4-piperidinyl]-1H-indole-7-carboxamide]: the IC50 in assay [1] is at most 1.5 µM; in assay [2], at most 10 µM.
For `CCS(=O)(=O)N1CCC(c2c[nH]c3c(C(N)=O)cc(-c4cccc(CNS(=O)(=O)c5cccc(F)c5)c4)cc23)CC1` [Example 373, 3-[1-(ethylsulfonyl)-4-piperidinyl]-5-[3-({[(3-fluorophenyl)sulfonyl]amino}methyl)phenyl]-1H-indole-7-carboxamide] the same measures were at most 1.5 µM and at most 10 µM.
As to `CCS(=O)(=O)N1CCC(c2c[nH]c3c(C(N)=O)cc(-c4cccc(CNS(=O)(=O)c5ccccc5Cl)c4)cc23)CC1` [Example 374, 5-[3-({[(2-chlorophenyl)sulfonyl]amino}methyl)phenyl]-3-[1-(ethylsulfonyl)-4-piperidinyl]-1H-indole-7-carboxamide], the IC50 in assay [1] was over 1 µM; in assay [2], at most 10 µM.
As to `CCS(=O)(=O)N1CCC(c2c[nH]c3c(C(N)=O)cc(-c4cccc(CNS(=O)(=O)c5cc(Cl)sc5Cl)c4)cc23)CC1` [Example 375, 5-[3-({[(2,5-dichloro-3-thienyl)sulfonyl]amino}methyl)phenyl]-3-[1-(ethylsulfonyl)-4-piperidinyl]-1H-indole-7-carboxamide], the IC50 in assay [1] is over 1 µM; in assay [2], at most 10 µM.
For `CCS(=O)(=O)N1CCC(c2c[nH]c3c(C(N)=O)cc(-c4cccc(CNS(=O)(=O)c5c(C)cccc5Cl)c4)cc23)CC1` [Example 376, 5-[3-({[(2-chloro-6-methylphenyl)sulfonyl]amino}methyl)phenyl]-3-[1-(ethylsulfonyl)-4-piperidinyl]-1H-indole-7-carboxamide] the same measures were at most 1.5 µM and at most 10 µM.
For `CCS(=O)(=O)N1CCC(c2c[nH]c3c(C(N)=O)cc(-c4cccc(CNS(=O)(=O)c5cc(F)ccc5C)c4)cc23)CC1` [Example 377, 3-[1-(ethylsulfonyl)-4-piperidinyl]-5-[3-({[(5-fluoro-2-methylphenyl)sulfonyl]amino}methyl)phenyl]-1H-indole-7-carboxamide] the same measures were over 1 µM and at most 10 µM.
For `CCS(=O)(=O)N1CCC(c2c[nH]c3c(C(N)=O)cc(-c4cccc(CNS(=O)(=O)c5cn(C)c(C)n5)c4)cc23)CC1` [Example 378, 5-[3-({[(1,2-dimethyl-1H-imidazol-4-yl)sulfonyl]amino}methyl)phenyl]-3-[1-(ethylsulfonyl)-4-piperidinyl]-1H-indole-7-carboxamide] the same measures were over 1 µM and at most 10 µM.
Take `CCS(=O)(=O)N1CCC(c2c[nH]c3c(C(N)=O)cc(-c4cccc(CNS(=O)(=O)c5ccccc5)c4)cc23)CC1` [Example 379, 3-[1-(ethylsulfonyl)-4-piperidinyl]-5-(3-{[(phenylsulfonyl)amino]methyl}phenyl)-1H-indole-7-carboxamide]: the IC50 is over 1 µM in assay [1] and at most 10 µM in assay [2].
Turning to `CCS(=O)(=O)N1CCC(c2c[nH]c3c(C(N)=O)cc(-c4cccc(CNS(=O)(=O)c5ccc(F)cc5)c4)cc23)CC1` [Example 380, 3-[1-(ethylsulfonyl)-4-piperidinyl]-5-[3-({[(4-fluorophenyl)sulfonyl]amino}methyl)phenyl]-1H-indole-7-carboxamide], the IC50 in assay [1] is at most 1.5 µM; in assay [2] it was at most 10 µM.
For `CCc1cc(Br)ccc1S(=O)(=O)NCc1cccc(-c2cc(C(N)=O)c3[nH]cc(C4CCN(S(=O)(=O)CC)CC4)c3c2)c1` [Example 381, 5-[3-({[(4-bromo-2-ethylphenyl)sulfonyl]amino}methyl)phenyl]-3-[1-(ethylsulfonyl)-4-piperidinyl]-1H-indole-7-carboxamide] the same measures were over 1 µM and at most 10 µM.
The like results for `CCS(=O)(=O)N1CCC(c2c[nH]c3c(C(N)=O)cc(-c4cccc(CNS(=O)(=O)c5ccc(C(C)(C)C)cc5)c4)cc23)CC1` [Example 383, 5-{3-[({[4-(1,1-dimethylethyl)phenyl]sulfonyl}amino)methyl]phenyl}-3-[1-(ethylsulfonyl)-4-piperidinyl]-1H-indole-7-carboxamide] were, in that order, at most 1.5 µM and at most 10 µM.
For `CCS(=O)(=O)N1CCC(c2c[nH]c3c(C(N)=O)cc(-c4cccc(CNS(=O)(=O)c5cccc6nonc56)c4)cc23)CC1` [Example 385, 5-(3-{[(2,1,3-benzoxadiazol-4-ylsulfonyl)amino]methyl}phenyl)-3-[1-(ethylsulfonyl)-4-piperidinyl]-1H-indole-7-carboxamide] the same measures were over 1 µM and at most 10 µM.
Consider `CCS(=O)(=O)N1CCC(c2c[nH]c3c(C(N)=O)cc(-c4ccc(N5CCN(C)CC5=O)cc4)cc23)CC1` [Example 388, 3-[1-(ethylsulfonyl)-4-piperidinyl]-5-[4-(4-methyl-2-oxo-1-piperazinyl)phenyl]-1H-indole-7-carboxamide], for which the IC50 in assay [1] was over 1 µM; in assay [2], at most 10 µM.
For `CCS(=O)(=O)N1CCC(c2c[nH]c3c(C(N)=O)cc(-c4ccc(N5CCN(C(C)=O)CC5)nc4)cc23)CC1` [Example 389, 5-[6-(4-acetyl-1-piperazinyl)-3-pyridinyl]-3-[1-(ethylsulfonyl)-4-piperidinyl]-1H-indole-7-carboxamide trifluoroacetate] the same measures were over 1 µM and at most 10 µM.
The like results for `CCS(=O)(=O)N1CCC(c2c[nH]c3c(C(N)=O)cc(-c4ccc(CNOC)cc4)cc23)CC1` [Example 390, 3-[1-(ethylsulfonyl)-4-piperidinyl]-5-(4-{[(methyloxy)amino]methyl}phenyl)-1H-indole-7-carboxamide] were, in that order, over 1 µM and at most 10 µM.
For `CCS(=O)(=O)N1CCC(c2c[nH]c3c(C(N)=O)cc(-c4csc(CN5CCC(N6CCCC6)CC5)c4)cc23)CC1` [Example 392, 3-[1-(ethylsulfonyl)-4-piperidinyl]-5-(5-{[4-(1-pyrrolidinyl)-1-piperidinyl]methyl}-3-thienyl)-1H-indole-7-carboxamide trifluoroacetate] the same measures were over 1 µM and at most 10 µM.
With `CCS(=O)(=O)N1CCC(c2c[nH]c3c(C(N)=O)cc(-c4csc(CN5CCC[C@H]5C(F)(F)F)c4)cc23)CC1` [Example 393, 3-[1-(ethylsulfonyl)-4-piperidinyl]-5-(5-{[(2S)-2-(trifluoromethyl)-1-pyrrolidinyl]methyl}-3-thienyl)-1H-indole-7-carboxamide trifluoroacetate], the IC50 in assay [1] was over 1 µM; in assay [2] it was at most 10 µM.
For `CC(C)S(=O)(=O)N1CCC(c2c[nH]c3c(C(N)=O)cc(-c4csc(CN5CCC[C@@H]5CO)c4)cc23)CC1` [Example 394, 5-(5-{[(2R)-2-(hydroxymethyl)-1-pyrrolidinyl]methyl}-3-thienyl)-3-{1-[(1-methylethyl)sulfonyl]-4-piperidinyl}-1H-indole-7-carboxamide] the same measures were at most 1.5 µM and at most 10 µM.
The like results for `CC(C)S(=O)(=O)N1CCC(c2c[nH]c3c(C(N)=O)cc(-c4csc(CN5CC[C@H](O)C5)c4)cc23)CC1` [Example 395, 5-(5-{[(3S)-3-hydroxy-1-pyrrolidinyl]methyl}-3-thienyl)-3-{1-[(1-methylethyl)sulfonyl]-4-piperidinyl}-1H-indole-7-carboxamide] were, in that order, at most 1.5 µM and at most 10 µM.
The like results for `CC(C)S(=O)(=O)N1CCC(c2c[nH]c3c(C(N)=O)cc(-c4csc(CN(C)C5CCCC5)c4)cc23)CC1` [Example 396, 5-(5-{[cyclopentyl(methyl)amino]methyl}-3-thienyl)-3-{1-[(1-methylethyl)sulfonyl]-4-piperidinyl}-1H-indole-7-carboxamide] were, in that order, at most 1.5 µM and at most 10 µM.
Consider `CC(C)S(=O)(=O)N1CCC(c2c[nH]c3c(C(N)=O)cc(-c4csc(CN(C)CCO)c4)cc23)CC1` [Example 397, 5-(5-{[(2-hydroxyethyl)(methyl)amino]methyl}-3-thienyl)-3-{1-[(1-methylethyl)sulfonyl]-4-piperidinyl}-1H-indole-7-carboxamide], for which the IC50 is at most 1.5 µM in assay [1] and at most 10 µM in assay [2].
